# US10092493B2, “Composition of skin external application for anti-aging” (AMOREPACIFIC CORPORATION, priority 2005, dated 2018)
# Test system: MMP-2
# Test: Inhibition of MMP-2 biosynthesis after UV irradiation (gelatin zymography)
# Type: cell-based
# Settings: human keratinocytes, UV-B 30 mJ/cm^2, 10 ppm test substance, 2 days; UV control = 100
# Description: (§1) After 24 hours, the plate was irradiated by UV-B at 30 mJ/cm^2. The media were exchanged with new medium containing 10 ppm of each test substance. After 2 days of cultivation, each supernatant was harvested and subjected to the zymography using gelatine gel to obtain produced MMP-2 and MMP-9, quantities of which were then measured by a densitometer.
row,Compound,MMP-2 (%)
1,"O=c1c(O)c(-c2cc(O)c(O)c(O)c2)oc2cc(O)cc(O)c12 [Myricetin, myricetin]",51
2,"O=C(O[C@@H]1Cc2c(O)cc(O)cc2O[C@@H]1c1cc(O)c(O)c(O)c1)c1cc(O)c(O)c(O)c1 [EGCG, epigallocatechin gallate]",52

# Test system: MMP-9
# Test: Inhibition of MMP-9 biosynthesis after UV irradiation (gelatin zymography)
# Type: cell-based
# Settings: human keratinocytes, UV-B 30 mJ/cm^2, 10 ppm test substance, 2 days; UV control = 100
# Description: as §1
row,Compound,MMP-9 (%)
1,"O=c1c(O)c(-c2cc(O)c(O)c(O)c2)oc2cc(O)cc(O)c12 [Myricetin, myricetin]",55
2,"O=C(O[C@@H]1Cc2c(O)cc(O)cc2O[C@@H]1c1cc(O)c(O)c(O)c1)c1cc(O)c(O)c(O)c1 [EGCG, epigallocatechin gallate]",56

# Test system: type IV collagen
# Test: Biosynthesis of type IV collagen in keratinocytes (Dot Blot)
# Type: cell-based
# Settings: human keratinocytes, 10 ppm, 24 hours; control = 100
# Description: The media were exchanged with new medium containing 10 ppm of each test substance. After 24 hours of cultivation, each supernatant was harvested and subjected to the Dot Blot method to measure the amount of produced type IV collagen.
row,Compound,Type IV collagen biosynthesis (%)
1,"O=c1c(O)c(-c2cc(O)c(O)c(O)c2)oc2cc(O)cc(O)c12 [Myricetin, myricetin]",139
2,"O=C(O[C@@H]1Cc2c(O)cc(O)cc2O[C@@H]1c1cc(O)c(O)c(O)c1)c1cc(O)c(O)c(O)c1 [EGCG, epigallocatechin gallate]",138

# Test system: type VII collagen
# Test: Biosynthesis of type VII collagen in fibroblasts (Dot Blot)
# Type: cell-based
# Settings: human fibroblasts, 10 ppm, 24 hours; control = 100
# Description: The media were exchanged with new medium containing 10 ppm of each test substance. After 24 hours of cultivation, each supernatant was harvested and subjected to the Dot Blot method to measure the amount of produced type VII collagen.
row,Compound,type VII collagen biosynthesis (%)
1,"O=c1c(O)c(-c2cc(O)c(O)c(O)c2)oc2cc(O)cc(O)c12 [Myricetin, myricetin]",125
2,"O=C(O[C@@H]1Cc2c(O)cc(O)cc2O[C@@H]1c1cc(O)c(O)c(O)c1)c1cc(O)c(O)c(O)c1 [EGCG, epigallocatechin gallate]",127

# Test system: laminin 10/11
# Test: Biosynthesis of laminin 10/11 in keratinocytes (Western Blot)
# Type: cell-based
# Settings: human keratinocytes, 10 ppm, 24 hours; control = 100
# Description: Human keratinocytes were cultured in a 24-well plate type incubator at a concentration of 5×10^4. The media were exchanged with new medium containing 10 ppm of each test substance. After 24 hours of cultivation, each supernatant was harvested and subjected to the Western Blot method to measure the amount of produced laminin 10/11.
row,Compound,laminin 10/11 biosynthesis (%)
1,"O=c1c(O)c(-c2cc(O)c(O)c(O)c2)oc2cc(O)cc(O)c12 [Myricetin, myricetin]",132
2,"O=C(O[C@@H]1Cc2c(O)cc(O)cc2O[C@@H]1c1cc(O)c(O)c(O)c1)c1cc(O)c(O)c(O)c1 [EGCG, epigallocatechin gallate]",137

# Test system: pro-collagen
# Test: Biosynthesis of collagen (pro-collagen ELISA) in fibroblasts
# Type: cell-based, Human
# Settings: 0.001 μM, 48 hours; un-treated control = 100
# Description: Human fibroblasts were cultured in a 48-well plate type incubator at a concentration of 10^4. The media were exchanged with new medium (theanine: 1, 10, 100 um) containing each test substance of Table 7 at a concentration of 0.001 μM, 0.01 μM, 0.1 μM, 0.5 μM and 2 μM. After 48 hours of cultivation, each supernatant was harvested and subjected to ELISA (Takara MK101) to measure the amount of produced pro-collagen.
# Also, in order to examine the synergic effect of theanine on collagen biosynthesis, theanine 10 μM was added to catechin at different 4 concentrations and the result is shown in Table 8.
row,Compound,Collagen biosynthesis
1,"O=C(O[C@@H]1Cc2c(O)cc(O)cc2O[C@@H]1c1cc(O)c(O)c(O)c1)c1cc(O)c(O)c(O)c1 [EGCG, epigallocatechin gallate]",101.4
2,"O=C(O[C@@H]1Cc2c(O)cc(O)cc2O[C@@H]1c1ccc(O)c(O)c1)c1cc(O)c(O)c(O)c1 [(−) ECG, epicatechin gallate]",100.5

# Same assay, conditions: 0.01 μM, 48 hours; un-treated control = 100
row,Compound,Collagen biosynthesis
1,"O=C(O[C@@H]1Cc2c(O)cc(O)cc2O[C@@H]1c1cc(O)c(O)c(O)c1)c1cc(O)c(O)c(O)c1 [EGCG, epigallocatechin gallate]",154.6
2,"O=C(O[C@@H]1Cc2c(O)cc(O)cc2O[C@@H]1c1ccc(O)c(O)c1)c1cc(O)c(O)c(O)c1 [(−) ECG, epicatechin gallate]",181.7

# Same assay, conditions: 0.1 μM, 48 hours; un-treated control = 100
row,Compound,Collagen biosynthesis
1,"O=C(O[C@@H]1Cc2c(O)cc(O)cc2O[C@@H]1c1cc(O)c(O)c(O)c1)c1cc(O)c(O)c(O)c1 [EGCG, epigallocatechin gallate]",133.8
2,"O=C(O[C@@H]1Cc2c(O)cc(O)cc2O[C@@H]1c1ccc(O)c(O)c1)c1cc(O)c(O)c(O)c1 [(−) ECG, epicatechin gallate]",165.3

# Same assay, conditions: 0.5 μM, 48 hours; un-treated control = 100
row,Compound,Collagen biosynthesis
1,"O=C(O[C@@H]1Cc2c(O)cc(O)cc2O[C@@H]1c1cc(O)c(O)c(O)c1)c1cc(O)c(O)c(O)c1 [EGCG, epigallocatechin gallate]",155.8
2,"O=C(O[C@@H]1Cc2c(O)cc(O)cc2O[C@@H]1c1ccc(O)c(O)c1)c1cc(O)c(O)c(O)c1 [(−) ECG, epicatechin gallate]",124.5

# Same assay, conditions: 2 μM, 48 hours; un-treated control = 100
row,Compound,Collagen biosynthesis
1,"O=C(O[C@@H]1Cc2c(O)cc(O)cc2O[C@@H]1c1cc(O)c(O)c(O)c1)c1cc(O)c(O)c(O)c1 [EGCG, epigallocatechin gallate]",78.4
2,"O=C(O[C@@H]1Cc2c(O)cc(O)cc2O[C@@H]1c1ccc(O)c(O)c1)c1cc(O)c(O)c(O)c1 [(−) ECG, epicatechin gallate]",77.8

# Same assay, conditions: 10 μM, 48 hours; un-treated control = 100
row,Compound,Collagen biosynthesis
1,CCNC(=O)CC[C@H](N)C(=O)O [Theanine],132.1

# Same assay, conditions: 100 μM, 48 hours; un-treated control = 100
row,Compound,Collagen biosynthesis
1,CCNC(=O)CC[C@H](N)C(=O)O [Theanine],167.5

# Target: T1, PPAR-α (Peroxisome Proliferator Activated Receptor-alpha) (Homo sapiens, UniProt Q07869)
# T1 construct: expressed in transfected cells; host or cells: CV-1 monkey kidney epithelial cells (ATCC CCL 70)
# T1 sequence (Q07869 1-468): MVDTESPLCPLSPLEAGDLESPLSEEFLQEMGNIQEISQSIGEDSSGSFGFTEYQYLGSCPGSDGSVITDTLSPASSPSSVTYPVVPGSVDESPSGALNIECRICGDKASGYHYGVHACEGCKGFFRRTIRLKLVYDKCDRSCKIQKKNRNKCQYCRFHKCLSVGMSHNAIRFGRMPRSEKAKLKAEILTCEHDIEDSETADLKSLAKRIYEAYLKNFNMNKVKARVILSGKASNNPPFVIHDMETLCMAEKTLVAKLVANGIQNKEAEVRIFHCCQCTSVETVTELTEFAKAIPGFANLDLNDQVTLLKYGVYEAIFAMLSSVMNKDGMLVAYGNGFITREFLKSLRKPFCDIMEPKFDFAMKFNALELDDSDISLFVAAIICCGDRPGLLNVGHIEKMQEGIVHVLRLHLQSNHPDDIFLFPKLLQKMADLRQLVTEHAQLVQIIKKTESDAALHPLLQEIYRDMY
# Test: Activation of PPAR-α, luciferase reporter in CV-1 cells
# Type: cell-based
# Settings: 10 μM, 24 hours; negative control and non-treated group = 1.0
# Description: Monkey kidney epithelial cell line CV-1 (ATCC CCL 70) was subcultured in a DMEM medium containing 10% fetal bovine serum treated with charcol/dextran, which was a phenol red-free medium to remove the effect by estrogen of phenol red.
# CV-1 cells were distributed in a 24-well plate type incubator at a concentration of 5×10^4. After 24 hours cultivation, the 3 different plasmids were transient transfected. After 24 hours cultivation, the plate was washed with 1×PBS (Phosphate Buffered Saline) and treated with ligand candidates at various concentrations. After 24 hours cultivation, the plate was washed with 1×PBS and the cells were lyzed with 1×PLB (Passive Lysis Buffer) and measured for luciferase activity using Dual-Luciferase® Reporter Assay System kit.
row,Compound,PPAR-α activity
1,"O=c1c(O)c(-c2cc(O)c(O)c(O)c2)oc2cc(O)cc(O)c12 [Myricetin, myricetin]",1.7
2,"O=C(O[C@@H]1Cc2c(O)cc(O)cc2O[C@@H]1c1cc(O)c(O)c(O)c1)c1cc(O)c(O)c(O)c1 [EGCG, epigallocatechin gallate]",1.0
3,CCNC(=O)CC[C@H](N)C(=O)O [Theanine],1.8
4,"O=C(O[C@@H]1Cc2c(O)cc(O)cc2O[C@@H]1c1ccc(O)c(O)c1)c1cc(O)c(O)c(O)c1 [(−) ECG, epicatechin gallate]",1.1

# Same assay, conditions: 100 μM, 24 hours; negative control and non-treated group = 1.0
row,Compound,PPAR-α activity
1,"O=c1c(O)c(-c2cc(O)c(O)c(O)c2)oc2cc(O)cc(O)c12 [Myricetin, myricetin]",1.6
2,"O=C(O[C@@H]1Cc2c(O)cc(O)cc2O[C@@H]1c1cc(O)c(O)c(O)c1)c1cc(O)c(O)c(O)c1 [EGCG, epigallocatechin gallate]",1.5
3,CCNC(=O)CC[C@H](N)C(=O)O [Theanine],1.9
4,"O=C(O[C@@H]1Cc2c(O)cc(O)cc2O[C@@H]1c1ccc(O)c(O)c1)c1cc(O)c(O)c(O)c1 [(−) ECG, epicatechin gallate]",1.6

# Test system: Tumor Necrosis Factor alpha (TNF-α)
# Test: Inhibition of TNF-α biosynthesis after UV irradiation (ELISA)
# Type: cell-based
# Settings: human keratinocytes, UV-B 30 mJ/cm^2, 10 μM (10 ppm of extract), 6 to 24 hours; UV control = 100
# Description: Human keratinocytes were cultured in a 12-well plate type incubator at a concentration of 10^4. The plate was irradiated by UV-B at 30 mJ/cm^2. The media were exchanged with new medium containing 10 μM of each test substance (10 ppm of extract). After 6 to 24 hours of cultivation, the cells were harvested and subjected to ELISA (Pharmingen 555212) to determine the amount of produced tumor necrosis factor α (TNF-α). As the positive control, Wy-14,643 was used.
row,Compound,TNF-α biosynthesis (%)
1,"O=c1c(O)c(-c2cc(O)c(O)c(O)c2)oc2cc(O)cc(O)c12 [Myricetin, myricetin]",36
2,"O=C(O[C@@H]1Cc2c(O)cc(O)cc2O[C@@H]1c1cc(O)c(O)c(O)c1)c1cc(O)c(O)c(O)c1 [EGCG, epigallocatechin gallate]",35
3,CCNC(=O)CC[C@H](N)C(=O)O [Theanine],30
4,"O=C(O[C@@H]1Cc2c(O)cc(O)cc2O[C@@H]1c1ccc(O)c(O)c1)c1cc(O)c(O)c(O)c1 [(−) ECG, epicatechin gallate]",32

# Test system: Type I Collagenase (MMP-1)
# Test: Inhibition of type I collagenase (MMP-1) biosynthesis after UV-A irradiation, test substances (ELISA)
# Type: cell-based
# Settings: new born human fibroblasts, UV-A 15 J/cm^2, 10 μM or 10 ppm, plus TNF-α 10 ng/ml; UV negative control = 100
# Description: To describe the experiment method in detail, human fibroblasts isolated from the skin of a new born baby were cultured in a 48-well plate type incubator at a concentration of 10^4. After 24 hours, the plate was irradiated by UV-A at 15 J/cm^2. […] At the second day of cultivation, the supernatants were harvested and subjected to ELISA (AP biotech RPN2610) to determine the amount of produced type I collagenase. As the positive control, Wy-14,643 and retinoic acid (RA) were used.
row,Compound,"Type I collagenase biosynthesis (%), UV-A + TNF-α treated group [%]"
1,"O=c1c(O)c(-c2cc(O)c(O)c(O)c2)oc2cc(O)cc(O)c12 [Myricetin, myricetin]",97
2,"O=C(O[C@@H]1Cc2c(O)cc(O)cc2O[C@@H]1c1cc(O)c(O)c(O)c1)c1cc(O)c(O)c(O)c1 [EGCG, epigallocatechin gallate]",88
3,CCNC(=O)CC[C@H](N)C(=O)O [Theanine],95
4,"O=C(O[C@@H]1Cc2c(O)cc(O)cc2O[C@@H]1c1ccc(O)c(O)c1)c1cc(O)c(O)c(O)c1 [(−) ECG, epicatechin gallate]",87

# Same assay, conditions: new born human fibroblasts, UV-A 15 J/cm^2, 10 μM or 10 ppm; UV negative control = 100
row,Compound,"Type I collagenase biosynthesis (%), UV-A irradiated group [%]"
1,"O=c1c(O)c(-c2cc(O)c(O)c(O)c2)oc2cc(O)cc(O)c12 [Myricetin, myricetin]",52
2,"O=C(O[C@@H]1Cc2c(O)cc(O)cc2O[C@@H]1c1cc(O)c(O)c(O)c1)c1cc(O)c(O)c(O)c1 [EGCG, epigallocatechin gallate]",42
3,CCNC(=O)CC[C@H](N)C(=O)O [Theanine],60
4,"O=C(O[C@@H]1Cc2c(O)cc(O)cc2O[C@@H]1c1ccc(O)c(O)c1)c1cc(O)c(O)c(O)c1 [(−) ECG, epicatechin gallate]",45
